# PubChem BioAssay (NCI)
#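 Interpolation was linear, between the two tested concentrations surrounding the appropriate level; five concentrations were tested over 48 hours in 96-well plates. GI50 = concentration required for 50% inhibition of growth. TGI marks complete inhibition of growth.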
# Columns and labels:
# Assay in all cases: growth of human tumour cells (NCI), 48 h
# SW-620 colon = tested on: SW-620 colon
# OVCAR-4 ovarian = tested on: OVCAR-4 ovarian
# TK-10 renal = tested on: TK-10 renal
# HCT-15 colon = tested on: HCT-15 colon
# T-47D breast = tested on: T-47D breast
# OVCAR-3 ovarian = tested on: OVCAR-3 ovarian
# U251 CNS = tested on: U251 CNS
# SK-MEL-28 melanoma = tested on: SK-MEL-28 melanoma
# LOX IMVI melanoma = tested on: LOX IMVI melanoma
# NCI/ADR-RES ovarian = tested on: NCI/ADR-RES ovarian
SMILES,GI50 (SW-620 colon),TGI (SW-620 colon),GI50 (OVCAR-4 ovarian),TGI (OVCAR-4 ovarian),GI50 (TK-10 renal),TGI (TK-10 renal),GI50 (HCT-15 colon),TGI (HCT-15 colon),GI50 (T-47D breast),TGI (T-47D breast),GI50 (OVCAR-3 ovarian),TGI (OVCAR-3 ovarian),GI50 (U251 CNS),TGI (U251 CNS),GI50 (SK-MEL-28 melanoma),TGI (SK-MEL-28 melanoma),GI50 (LOX IMVI melanoma),TGI (LOX IMVI melanoma),GI50 (NCI/ADR-RES ovarian),TGI (NCI/ADR-RES ovarian)
Cc1ccc(S(=O)(=O)NC(CCCCN)C(=O)CCl)cc1 (centres undefined),43.1 µM,> 100 µM,> 100 µM,> 100 µM,90.5 µM,> 100 µM,72.4 µM,> 100 µM,> 100 µM,> 100 µM,33.2 µM,> 100 µM,29 µM,> 100 µM,> 100 µM,> 100 µM,45.4 µM,> 100 µM,81.3 µM,> 100 µM
CCCCCCCCCCCCOC1C(C(COC2OC(C(O)CO)C3OC(C)(C)OC23)OC(=O)Nc2ccc([N+](=O)[O-])cc2)OC2OC(C)(C)OC21 (centres undefined),1.79 µM,3.33 µM,7.09 µM,23.5 µM,2.68 µM,7.29 µM,3.3 µM,11.1 µM,4.71 µM,16.9 µM,1.65 µM,3.14 µM,1.85 µM,3.59 µM,9.84 µM,22.7 µM,2 µM,3.79 µM,12.3 µM,26.5 µM
O=C(/C=C/CN1CCCCC1)Nc1cc2c(Nc3ccc(F)c(Cl)c3F)ncnc2cc1OCCOC(F)F,1.49 µM,8.17 µM,1.23 µM,13 µM,< 0.01 µM,1.36 µM,0.633 µM,3.86 µM,0.0535 µM,1.37 µM,0.284 µM,2.55 µM,1.87 µM,9.25 µM,2.27 µM,9.19 µM,1.22 µM,2.59 µM,0.446 µM,3.82 µM
Cc1cccc(NC(=O)c2sc3nc4c(cc3c2N)CCC4)c1C,0.359 µM,> 100 µM,1.33 µM,22.8 µM,0.74 µM,26.5 µM,0.264 µM,21.3 µM,0.351 µM,34.7 µM,0.308 µM,1.47 µM,0.457 µM,15.8 µM,0.803 µM,39.6 µM,0.643 µM,> 100 µM,0.279 µM,10.3 µM
C=C1C(=O)O[C@H]2[C@H]1CC/C(Cn1cc(CNC(=O)c3cc4ccccc4[nH]3)nn1)=C\CC[C@@]1(C)O[C@@H]21,1.97 µM,3.94 µM,4.52 µM,17.1 µM,4.41 µM,15.2 µM,10.2 µM,27.4 µM,3.55 µM,20.4 µM,2.12 µM,5.63 µM,8.24 µM,21.8 µM,2.18 µM,4.69 µM,1.82 µM,4.06 µM,69.3 µM,> 100 µM
Cn1cc(C2=C(c3cn(CCCSC(=N)N)c4ccccc34)C(=O)NC2=O)c2ccccc21,1.66 µM,5.51 µM,3.23 µM,9.88 µM,3.88 µM,10.7 µM,4.71 µM,11.1 µM,1.11 µM,5.12 µM,2.4 µM,9.28 µM,1.61 µM,5.06 µM,1.3 µM,4.48 µM,1.91 µM,5.45 µM,> 25 µM,> 25 µM
O=C(NC(c1ccccc1)C(O)C(=O)OCc1ccc2c(c1)C(=O)c1ccccc1C2=O)c1ccccc1 (centres undefined),,> 100 µM,,4.99 µM,,53.2 µM,,> 100 µM,,34.9 µM,,34.6 µM,,18.3 µM,,> 95.6 µM,,> 83.8 µM,,33.9 µM
Cn1c([N+](=O)[O-])cnc1/C=C1\Oc2ccc(Cl)cc2C1=O,0.181 µM,0.66 µM,1.7 µM,5.71 µM,1.04 µM,2.77 µM,0.251 µM,1.04 µM,4.07 µM,46.4 µM,0.307 µM,0.952 µM,1.16 µM,3.01 µM,1.14 µM,5.14 µM,0.25 µM,0.825 µM,0.534 µM,> 22.5 µM
COc1ccc(/C=C2\CN(Cc3cn(CCCNc4ccnc5cc(Cl)ccc45)nn3)C/C(=C\c3ccc(OC)cc3)C2=O)cc1,1.69 µM,3.57 µM,7.37 µM,28.1 µM,16.5 µM,30.1 µM,1.83 µM,5.14 µM,21 µM,51.1 µM,4.91 µM,18.1 µM,5.53 µM,18.9 µM,14 µM,28 µM,3.98 µM,18.5 µM,3.15 µM,14.5 µM
CN(C)c1ccc(/C=C/C(=O)c2ccc(Nc3nc(Nc4ccc(F)cc4)nc(Nc4ccc(Cl)cc4)n3)cc2)cc1,6.79 µM,33.6 µM,10.7 µM,> 100 µM,11.3 µM,81.3 µM,4.66 µM,> 100 µM,3.33 µM,45.2 µM,5.48 µM,21.6 µM,7.66 µM,70.6 µM,3.88 µM,52.7 µM,8.93 µM,47.2 µM,3.56 µM,33.4 µM
Oc1c(Br)cc(Br)c2cccnc12,4.58 µM,72.8 µM,4.09 µM,97 µM,14.2 µM,> 100 µM,4.84 µM,31.1 µM,3.03 µM,18.4 µM,3.53 µM,15.2 µM,3.34 µM,18.8 µM,4.79 µM,> 100 µM,2.94 µM,14.1 µM,2.82 µM,> 100 µM
Cc1ccc(SCN2CCCCC2)cc1 (tested in a mixture with another compound),,56.5 µM,,43.8 µM,,45.3 µM,,32 µM,,> 100 µM,,30 µM,,23.2 µM,,29.7 µM,,14.3 µM,,57.5 µM
NC(=O)NOCC1NC(=O)NC1=O (centres undefined),,> 100 µM,,> 100 µM,,> 100 µM,,> 100 µM,,> 100 µM,,> 100 µM,,> 100 µM,,> 100 µM,,> 100 µM,,> 100 µM
CCOC(=O)C(Cc1ccc(N(CCCl)CCCl)cc1)NC(=O)C(CC(C)C)NC(C)=O (centres undefined),1.08 µM,6.03 µM,1.33 µM,3.97 µM,1.98 µM,4.87 µM,2.22 µM,> 27.8 µM,0.642 µM,3.48 µM,0.332 µM,1.4 µM,1.39 µM,8.13 µM,1.61 µM,3.82 µM,0.296 µM,2.23 µM,2.14 µM,16.9 µM
COc1ccc(-c2nccn2-c2cc(OC)c(OC)c(OC)c2)cc1,1.34 µM,> 100 µM,15.3 µM,> 100 µM,10.7 µM,> 100 µM,1.16 µM,> 100 µM,9.55 µM,> 100 µM,1.07 µM,,3.85 µM,> 100 µM,20.6 µM,> 100 µM,8.76 µM,> 100 µM,1.17 µM,22.2 µM
O=C(CN1C(=O)c2ccccc2C1=O)NC1(C(=O)O)CCCC1,,> 100 µM,,> 100 µM,,> 100 µM,,> 100 µM,,> 100 µM,,> 100 µM,,> 100 µM,,> 100 µM,,> 100 µM,,> 100 µM
COC(=O)c1cc2c([nH]c3ccccc32)c(-c2nc3cc(N(S(=O)(=O)c4ccc(C)cc4)S(=O)(=O)c4ccc(C)cc4)c(OC)cc3cc2CO)n1,> 100 µM,> 100 µM,> 100 µM,> 100 µM,> 100 µM,> 100 µM,> 100 µM,> 100 µM,> 100 µM,> 100 µM,> 100 µM,> 100 µM,59.5 µM,> 100 µM,> 100 µM,> 100 µM,> 100 µM,> 100 µM,> 100 µM,> 100 µM
COc1cc2c(c(OC)c1OC)-c1c(c3ccc([N+](=O)[O-])cc3c(=O)n1CCCN=[N+]=[N-])C2=O,33.6 µM,> 100 µM,19.4 µM,60.9 µM,13.1 µM,33.1 µM,44.6 µM,> 100 µM,34.8 µM,> 100 µM,45.2 µM,> 100 µM,8.36 µM,23.3 µM,> 100 µM,> 100 µM,28.5 µM,> 100 µM,45.3 µM,> 100 µM
CCCCc1ccc(C(N)=O)nc1,> 100 µM,> 100 µM,> 100 µM,> 100 µM,> 100 µM,> 100 µM,> 100 µM,> 100 µM,> 100 µM,> 100 µM,> 100 µM,> 100 µM,> 100 µM,> 100 µM,> 100 µM,> 100 µM,> 100 µM,> 100 µM,> 100 µM,> 100 µM
